Experimental data: US20260207600A1, “METHODS OF TREATMENT WITH MYOSIN MODULATOR” (MYOKARDIA, INC., priority 2019, published 2026)
≈ marks a conversion by molar mass, not a printed value. Where two headings read alike, the source gives them in different places.

What was measured:
[1] = tested on: conscious fully-instrumented dogs with normal cardiac function; test: Acute β-AR (dobutamine) challenge after mavacamten in conscious instrumented dogs; type: in vivo, dog
Protocol: In addition, the effects of MAVA (at 1.5 mg/kg PO, via gavage) on cardiac reserve were evaluated via acute β-AR challenges (dobutamime: 2, 5, and 10 ug/kg/min IV) in conscious fully-instrumented (LVPV group) dogs with normal cardiac function (n=8). These challenges were performed before/after dosing (+3-hour) in control- and MAVA-treated animals both under normal cardiac physiological conditions (n=4) and under (mild) concomitant cardio-depression induced via either selective β-AR blockade (+BB, metoprolol 0.5±0.1 mg/kg PO tid; n=4) or L-type Ca2+-channel blockade (+CCB, verapamil at 5±1 mg/kg PO tid; n=4); pharmacological blockades were established for 7 days prior to the MAVA treatment. Both peak and dose-responses were evaluated at steady state.
Throughout these experiments, analog signals were digitally acquired (1000 Hz) and recorded continuously with a data acquisition/analysis system (IOX; EMKA Technologies). Heart rate (HR), end-systolic (ESP) and end-diastolic pressures (EDP), as well as the peak rates of pressure rise/decline (dP/dtmax and dP/dtmin), the contractility index (CI: dP/dt/P at dP/dtmax), and the time-constant of myocardial relaxation (tau½, time for 50% decay from dP/dtmin) were derived from the LV pressure signal. Meanwhile, the end-systolic (ESV) and end-diastolic volumes (EDV) were measured from the LV volume signal derived from the implanted myocardial crystals. LV volumes were derived assuming a Teichholz model, and stroke volume (SV=EDV−ESV), ejection fraction (EF=SV/EDV), as well as cardiac output (CO=SV·HR) were calculated; in a subset of animals, SV and CO values were verified from data derived from the implanted aortic flow proble. […] The slopes of the preload-recruitable stroke work (PRSW; stroke work vs. EDV) and the end-systolic pressure-volume relationships (ESPVR; end-systolic elastance, Ees) were derived by software using linear models (IOX; EMKA Technologies), and were used as load-independent inotropic indices. Ventricular load was estimated by the effective arterial elastance (Ea=ESP/SV). […]

[2] = tested on: isolated adult rat ventricular myocytes; test: Counteraction of mavacamten effects by isoproterenol in isolated myocytes in vitro; type: cell-based
Text: Additional supportive measures, e.g., intravenous volume supplementation and/or the use of arterial vasoconstrictor agents (a adrenergic agonists) may complement the use of a β adrenergic agonist.

[3] = tested on: CYP3A4/5; test: In vitro contribution of CYP enzymes to mavacamten metabolism; type: in vitro ADME
[4] = tested on: conscious Sprague-Dawley rats; test: Positive inotropic challenge (dobutamine, levosimendan) after supra-therapeutic mavacamten, echocardiography; type: in vivo, rat; settings: supra-therapeutic dose, healthy rats
Protocol: Methods: The responsiveness of mavacamten-induced cardio-depression to positive inotropic challenges was assessed in a set of conscious Sprague-Dawley rats. In these animals, functional reserve was assessed via either dobutamine (+DOB, 10 μg/kg/min IV for 10 min, n=7) or levosimendan (+LEVO, 0.3 μmol/kg IV over […]; n=6) challenges given 3 hrs following a single-dose administration of MAVA (at 4 mg/kg, PO). Cardiac function/geometry were recorded and compared at three separate time-points/days: prior to dosing (i.e., at baseline) and at 3 hrs post-dosing both before as well as during the inotropic challenge; in order to account for the levosimendan-induced changes in loading conditions, an additional echocardiographic examination was performed following acute preload-restoration in LEVO-treated rats (+LEVO/F, 0.9% NaCl at 30 mL/kg/hr IV).
In these experiments, left-ventricular fractional shortening (FS), an index of systolic performance, as well as LV dimensions/volumes and heart rates were measured using a high-frequency transducer and parasternal long-axis transthoracic views (Vevo2100, VisualSonic). FS was defined as the end-diastole normalized change in internal dimensions/diameter of the left ventricle between end-systole (LVESd) and end-diastole (LVEDd) (i.e., FS=100·[LVEDd−LVESd]/LVEDd). LV volumes were derived assuming a Teichholz model (LVV=7·[2.4+LVid]−1·LVid3).

[5] = molecular target: CYP2C9 (Homo sapiens, UniProt P11712); test: In vitro contribution of CYP enzymes to mavacamten metabolism; type: in vitro ADME
Sequence of CYP2C9 (P11712 whole entry): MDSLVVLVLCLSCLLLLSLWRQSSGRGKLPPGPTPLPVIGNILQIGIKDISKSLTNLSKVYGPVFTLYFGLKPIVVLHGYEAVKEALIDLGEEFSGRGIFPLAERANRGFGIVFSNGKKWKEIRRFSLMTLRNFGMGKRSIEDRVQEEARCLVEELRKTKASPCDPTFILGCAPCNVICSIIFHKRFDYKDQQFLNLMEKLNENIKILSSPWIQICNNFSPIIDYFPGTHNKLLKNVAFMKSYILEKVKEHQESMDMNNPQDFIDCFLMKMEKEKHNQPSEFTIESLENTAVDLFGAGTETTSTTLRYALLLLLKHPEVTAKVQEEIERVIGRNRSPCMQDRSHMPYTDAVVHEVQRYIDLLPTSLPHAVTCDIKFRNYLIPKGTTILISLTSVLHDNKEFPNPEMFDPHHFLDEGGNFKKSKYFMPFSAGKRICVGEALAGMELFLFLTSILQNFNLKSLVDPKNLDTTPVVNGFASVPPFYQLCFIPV

[6] = tested on: subjects with symptomatic non-obstructive hypertrophic cardiomyopathy (nHCM); test: […]-HCM Phase 2 randomized, double-blind, placebo-controlled, concentration-guided study; type: in vivo, human; settings: baseline and week 16
[7] = Solubility estimates at ambient temperature; type: physicochemical; settings: thermodynamic from solid, Form A (Lot 2-4), read-out: Solubility (estimate)
Protocol: Solubilities were calculated based on the total solvent used to give a solution; actual solubilities may be greater because of the volume of solvent portions utilized or a slow rate of dissolution. […] If dissolution occurred at the first aliquot, the value was reported as “>”.
Solubility estimates at ambient temperature were performed in 25 solvents and solvent systems using Form A (Lot 2-4) (Table 13.3).

CC(C)n1c(=O)cc(N[C@@H](C)c2ccccc2)[nH]c1=O [mavacamten, (S)-3-Isopropyl-6-((1-phenylethyl)amino)pyrimidine-2, 4(1H,3H)-dione]
β-AR induced acceleration of tau ([1]; at any given dP/dtmax gain): enhanced the β-AR induced acceleration of tau
dobutamine-triggered stroke-volume/cardiac output recruitments ([1]; before (control) vs under acute mavacamten treatment): comparable stroke-volume/cardiac output recruitments
β-AR elevations in dP/dtmax and CI ([1]; dobutamine challenge): blunted β-AR elevations in dP/dtmax and CI
Reversal of pharmacologic effects by β adrenergic agonist [2]: can be counteracted by β adrenergic agonists
percent contribution to the metabolism of mavacamten [3]: 18%
reduction in ejection fraction [4]: ~50%
percent contribution to the metabolism of mavacamten [5]: 7.5%
hs-cTnI, post-hoc analysis of banked serum samples [6]: confirmed the reduction in cTnI
solubility ([7]; aqueous with cosolvent or surfactant or cyclodextrin, DMSO:water (50:50)): < 1 mg/mL
solubility ([7]; aqueous with cosolvent or surfactant or cyclodextrin, MeOH:water (50:50)): < 1 mg/mL
solubility ([7]; organic solvent or mixture, Anisole): < 1 mg/mL
solubility ([7]; organic solvent or mixture, DMF:CHCl3 (90:10)): ~27 mg/mL (≈ 98.8 mM)
solubility ([7]; organic solvent or mixture, DMF:EtOAc (80:20)): ~27 mg/mL (≈ 98.8 mM)
solubility ([7]; organic solvent or mixture, DMF:EtOH (75:25)): ~28 mg/mL (≈ 102 mM)
solubility ([7]; organic solvent or mixture, DMF:anisole (90:10)): ~28 mg/mL (≈ 102 mM)
solubility ([7]; organic solvent or mixture, DMF:iPrOH (80:20)): ~43 mg/mL (≈ 157 mM)
solubility ([7]; organic solvent or mixture, DMF:toluene (90:10)): ~42 mg/mL (≈ 154 mM)
solubility ([7]; organic solvent or mixture, DMSO:p-dioxane (80:20)): > 42 mg/mL
solubility ([7]; organic solvent or mixture, DMSO:water (90:10)): ~5 mg/mL (≈ 18.3 mM)
solubility ([7]; organic solvent or mixture, HFIPA): > 60 mg/mL
solubility ([7]; organic solvent or mixture, HFIPA:water (90:10)): ~28 mg/mL (≈ 102 mM)
solubility ([7]; organic solvent or mixture, MIBK): < 1 mg/mL
solubility ([7]; organic solvent or mixture, MeOH): ~2 mg/mL (≈ 7.32 mM)
solubility ([7]; organic solvent or mixture, MeOH:water (90:10)): < 1 mg/mL
solubility ([7]; organic solvent or mixture, NMP:EtOAc (80:20)): ~45 mg/mL (≈ 165 mM)
solubility ([7]; organic solvent or mixture, NMP:MeOH (75:25)): ~38 mg/mL (≈ 139 mM)
solubility ([7]; organic solvent or mixture, NMP:toluene (80:20)): ~27 mg/mL (≈ 98.8 mM)
solubility ([7]; organic solvent or mixture, NMP:water (90:10)): ~23 mg/mL (≈ 84.1 mM)
solubility ([7]; organic solvent or mixture, THF): ~2 mg/mL (≈ 7.32 mM)
solubility ([7]; organic solvent or mixture, THF:water (90:10)): ~13 mg/mL (≈ 47.6 mM)
solubility ([7]; organic solvent or mixture, iPrOH): < 1 mg/mL
solubility ([7]; organic solvent or mixture, nitromethane): < 1 mg/mL
solubility ([7]; organic solvent or mixture, toluene): < 1 mg/mL
